Patent publication US9096596B2 (Janssen Pharmaceutica NV, priority 2013, dated 2015)
pIC50, pKi: −log10 of the molar value. Read-outs that look alike come from different tables or passages of the source.

How the values were obtained:
P2X7 [1] = biological target: T1, P2X7 (Homo sapiens (Human), UniProt Q99572); assay: Radioligand binding, human P2X7-1321N1 cell membranes, tracer tritiated A-804598
Procedure: On the day of the experiment, cell membrane preparations were made according to standard published methods. […] The compound can be prepared as described in the literature. […] The assay was terminated by filtration (GF/B filters pre-soaked with 0.3% PEI) and washed with washing buffer (Tris-HCl 50 mM). The IC50 generated in the binding assay was corrected for tracer concentration and affinity of the tracer to derive at the affinity (Ki) of the test compounds.

P2X7 [2] = biological target: T1, P2X7; assay: Ca2+ flux (FLIPR) in 1321N1 cells expressing recombinant human P2X7 channel; format: cell-based; details: 250 μM BzATP, Calcium-4 dye
Procedure: 1321N1 cells expressing the recombinant human, rat or mouse P2X7 channel was cultured in HyQ DME/(HyClone/Dulbecco's Modified Eagle Medium) high glucose supplemented with 10% Fetal Bovine Serum (FBS) and appropriate selection marker. Cells were seeded at a density of 25000 cells/well (96-well clear bottom black walled plates) in 100 μl volume/well. On the day of the experiment, cell plates were washed with assay buffer, containing (in mM): 130 NaCl, 2 KCl, 1 CaCl2, 1 MgCl2, 10 HEPES, 5 glucose; pH 7.40 and 300 mOs. After the wash, cells were loaded with the Calcium-4 dye (Molecular Device) and incubated in the dark for 60 minutes. Test compounds were prepared at 250× the test concentration in neat DMSO. Intermediate 96-well compound plates were prepared by transferring 1.2 μL of the compound into 300 μL of assay buffer. A further 3× dilution occurred when transferring 50 μL/well of the compound plate to 100 μL/well in the cell plate. Cells were incubated with test compounds and dye for 30 minutes. […] The fluorescence change was measured 180 seconds after adding the agonist.

rat P2X7 = rat P2X7 (Rattus norvegicus (Rat), UniProt Q64663); assay: Ca2+ flux (FLIPR) in 1321N1 cells expressing recombinant rat P2X7 channel; format: cell-based; details: 250 μM BzATP, Calcium-4 dye
Sequence of rat P2X7 (Q64663 whole entry): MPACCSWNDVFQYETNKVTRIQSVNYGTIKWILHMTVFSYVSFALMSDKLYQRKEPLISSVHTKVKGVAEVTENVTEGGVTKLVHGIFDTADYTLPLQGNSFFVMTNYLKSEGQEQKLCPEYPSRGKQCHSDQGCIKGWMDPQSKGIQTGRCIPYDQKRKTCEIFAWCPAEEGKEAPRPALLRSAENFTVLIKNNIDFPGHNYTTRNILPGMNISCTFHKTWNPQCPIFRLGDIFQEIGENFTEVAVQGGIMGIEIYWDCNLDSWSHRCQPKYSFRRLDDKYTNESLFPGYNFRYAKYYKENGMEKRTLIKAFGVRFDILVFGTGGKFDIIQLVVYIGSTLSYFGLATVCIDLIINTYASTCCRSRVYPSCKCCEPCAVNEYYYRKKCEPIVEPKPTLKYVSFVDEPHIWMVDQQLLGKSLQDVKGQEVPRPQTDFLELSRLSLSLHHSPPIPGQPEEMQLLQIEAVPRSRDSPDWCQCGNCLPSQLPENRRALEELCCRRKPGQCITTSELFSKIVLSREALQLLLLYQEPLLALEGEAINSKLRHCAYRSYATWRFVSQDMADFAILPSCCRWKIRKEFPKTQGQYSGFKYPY
Procedure, shortened: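 1321N1 cells stably expressing P2X7 were loaded with Calcium-4 dye for 60 min in HEPES-buffered saline (pH 7.40, 1 mM CaCl2, 1 mM MgCl2), then preincubated with test compounds for 30 min. Fluorescence change was read 180 s after agonist addition.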

P2X7 [3] = biological target: T1, P2X7; assay: P2X7 antagonism in human PBMCs (IL-1β release, ELISA); format: cell-based; details: test compound 10 μM, IL-1β release in human PBMCs, LPS 30 ng/ml + Bz-ATP 0.5 mM, read-out: PBMC 10 μM (% control)
Procedure: Human blood was collected using a blood donor program. […] Cells were incubated for an additional 1.5 hours. […] In Table 2, when the data cell has been left blank, it is intended to mean that the compound was not tested in that assay.

[4] = human P2X7-1321N1 membranes, 1 hour at 4° C., IC50 corrected for tracer concentration and affinity

T1 sequence (Q99572 whole entry): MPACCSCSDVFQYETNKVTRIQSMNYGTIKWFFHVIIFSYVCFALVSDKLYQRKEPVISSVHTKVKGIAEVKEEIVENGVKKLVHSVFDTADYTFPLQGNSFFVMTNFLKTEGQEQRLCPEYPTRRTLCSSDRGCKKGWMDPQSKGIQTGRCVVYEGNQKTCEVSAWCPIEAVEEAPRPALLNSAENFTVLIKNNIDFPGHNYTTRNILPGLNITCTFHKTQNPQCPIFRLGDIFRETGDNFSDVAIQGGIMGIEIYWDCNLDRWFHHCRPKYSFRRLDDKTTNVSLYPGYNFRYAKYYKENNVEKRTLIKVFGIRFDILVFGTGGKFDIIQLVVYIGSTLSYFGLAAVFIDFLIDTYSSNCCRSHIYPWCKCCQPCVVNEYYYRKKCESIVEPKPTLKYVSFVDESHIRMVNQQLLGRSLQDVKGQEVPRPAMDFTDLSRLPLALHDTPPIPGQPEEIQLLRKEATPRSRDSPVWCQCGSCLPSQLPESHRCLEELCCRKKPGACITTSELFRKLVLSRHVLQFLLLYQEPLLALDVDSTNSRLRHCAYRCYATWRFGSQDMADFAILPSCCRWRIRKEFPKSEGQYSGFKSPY

SMILES	pKi (P2X7 [1])	pIC50 (P2X7 [2])	pIC50 (rat P2X7)	pKi (P2X7 [1]; [4])	remaining activity at 10 µM (P2X7 [3])
Cc1nc2c(c(-c3ccn[nH]3)n1)C[C@@H](C)N(C(=O)c1cccc(C(F)(F)F)c1C)C2 (single isomer, unassigned) [Example 78, (R*)-(2,6-dimethyl-4-(1H-pyrazol-5-yl)-5,6-dihydropyrido[3,4-d]pyrimidin-7(8H)-yl)(2-methyl-3-(trifluoromethyl)phenyl)methanone]	8.10	7.87			
Cc1nc2c(c(-c3ccn[nH]3)n1)C[C@H](C)N(C(=O)c1ccc(Cl)cc1F)C2 (single isomer, unassigned) [Example 89, (S*)-(4-chloro-2-fluorophenyl)(2,6-dimethyl-4-(1H-pyrazol-5-yl)-5,6-dihydropyrido[3,4-d]pyrimidin-7(8H)-yl)methanone]	7.94	7.76			
Cc1nc2c(c(-c3ccn[nH]3)n1)C[C@H](C)N(C(=O)c1ccc(F)cc1F)C2 (single isomer, unassigned) [Example 95, (S*)-(2,4-difluorophenyl)(2,6-dimethyl-4-(1H-pyrazol-5-yl)-5,6-dihydropyrido[3,4-d]pyrimidin-7(8H)-yl)methanone]	7.50	7.19	6.99		
O=C(c1cccc(C(F)(F)F)c1Cl)N1CCc2c(ncnc2-c2ccccc2)C1 [Example 1, 7-{[2-Chloro-3-(trifluoromethyl)phenyl]carbonyl}-4-phenyl-5,6,7,8-tetrahydropyrido[3,4-d]pyrimidine]		7.52	5.90	6.65	
Cc1nc2c(c(-c3ccn[nH]3)n1)CC(C)N(C(=O)c1ccc(C#N)cc1C)C2 (stereo not drawn) [Example 3, 4-(2,6-dimethyl-4-(1H-pyrazol-5-yl)-5,6,7,8-tetrahydropyrido[3,4-d]pyrimidine-7-carbonyl)-3-methylbenzonitrile]		6.10	5.37		2.5%
Cn1cc(-c2ncnc3c2CCN(C(=O)c2cccc(Cl)c2Cl)C3)cn1 [Example 5, 7-[(2,3-Dichlorophenyl)carbonyl]-4-(1-methyl-1H-pyrazol-4-yl)-5,6,7,8-tetrahydropyrido[3,4-d]pyrimidine]		4.89	< 5.00		
O=C(c1cc(F)c(F)cc1Cl)N1CCc2c(ncnc2-c2cnccn2)C1 [Example 16, 7-[(2-Chloro-4,5-difluorophenyl)carbonyl]-4-pyrazin-2-yl-5,6,7,8-tetrahydropyrido[3,4-d]pyrimidine]		4.88	< 5.00		20.4%
O=C(c1ccc(F)cc1Cl)N1CCc2c(ncnc2-c2ccn[nH]2)C1 [Example 21]		6.55		7.40	-15.5%
O=C(c1cccc(Cl)c1Cl)N1CCc2c(ncnc2-n2cccn2)C1 [Example 22, 7-[(2,3-Dichlorophenyl)carbonyl]-4-(1H-pyrazol-1-yl)-5,6,7,8-tetrahydropyrido[3,4-d]pyrimidine]		6.70	4.55		
Cc1nc2c(c(-c3ccccc3)n1)CCN(C(=O)c1cccc(Cl)c1Cl)C2 [Example 27, 7-[(2,3-Dichlorophenyl)carbonyl]-2-methyl-4-phenyl-5,6,7,8-tetrahydropyrido[3,4-d]pyrimidine]		6.93	5.34	6.37	
O=C(c1cccc(C(F)(F)F)c1Cl)N1CCc2c(ncnc2-c2nccs2)C1 [Example 37, 7-{[2-Chloro-3-(trifluoromethyl)phenyl]carbonyl}-4-(1,3-thiazol-2-yl)-5,6,7,8-tetrahydropyrido[3,4-d]pyrimidine]		7.92		7.30	
O=C(c1cccc(Cl)c1Cl)N1CCc2c(ncnc2-c2nccs2)C1 [Example 38, 7-[(2,3-Dichlorophenyl)carbonyl]-4-(1,3-thiazol-2-yl)-5,6,7,8-tetrahydropyrido[3,4-d]pyrimidine]		7.20		7.11	
O=C(c1cccc(C(F)(F)F)c1Cl)N1CCc2c(ncnc2-c2ccc[nH]2)C1 [Example 42, 7-{[2-Chloro-3-(trifluoromethyl)phenyl]carbonyl}-4-(1H-pyrrol-2-yl)-5,6,7,8-tetrahydropyrido[3,4-d]pyrimidine]		7.70		7.10	
Cc1nc2c(c(-c3cscn3)n1)CCN(C(=O)c1cccc(C(F)(F)F)c1Cl)C2 [Example 44, 7-{[2-Chloro-3-(trifluoromethyl)phenyl]carbonyl}-2-methyl-4-(1,3-thiazol-4-yl)-5,6,7,8-tetrahydropyrido[3,4-d]pyrimidine]		7.46	6.81	7.20	
Cc1nc2c(c(-n3ccnn3)n1)CCN(C(=O)c1cccc(C(F)(F)F)c1Cl)C2 [Example 48, 7-{[2-Chloro-3-(trifluoromethyl)phenyl]carbonyl}-2-methyl-4-(1H-1,2,3-triazol-1-yl)-5,6,7,8-tetrahydropyrido[3,4-d]pyrimidine]		5.30	5.00	5.70	
Cc1nc2c(c(-c3ccn[nH]3)n1)CCN(C(=O)c1ccc(Cl)c(F)c1Cl)C2 [Example 53, 7-[(2,4-Dichloro-3-fluorophenyl)carbonyl]-2-methyl-4-(1H-pyrazol-5-yl)-5,6,7,8-tetrahydropyrido[3,4-d]pyrimidine]		7.08	5.72	7.20	
O=C(c1cccc(C(F)(F)F)c1Cl)N1CCc2c(nc(C(F)(F)F)nc2-c2ccn[nH]2)C1 [Example 60, (4-(1H-pyrazol-5-yl)-2-(trifluoromethyl)-5,6-dihydropyrido[3,4-d]pyrimidin-7(8H)-yl)(2-chloro-3-(trifluoromethyl)phenyl)methanone]		7.18		7.10	10.8%
Cc1nc2c(c(-c3ccn[nH]3)n1)CC(C)N(C(=O)c1cccc(C#N)c1C)C2 (stereo not drawn) [Example 61, 3-(2,6-dimethyl-4-(1H-pyrazol-5-yl)-5,6,7,8-tetrahydropyrido[3,4-d]pyrimidine-7-carbonyl)-2-methylbenzonitrile]		6.35	5.51		-1.2%
O=C(c1cccc(C(F)(F)F)c1Cl)N1CCc2c(ncnc2-n2cncn2)C1 [Example 110, (4-(1H-1,2,4-triazol-1-yl)-5,6-dihydropyrido[3,4-d]pyrimidin-7(8H)-yl)(2-chloro-3-(trifluoromethyl)phenyl)methanone]		< 5.00	< 5.00		20.1%
O=C(c1ccc(F)c(Cl)c1Cl)N1CCc2c(ncnc2-c2cccc(F)n2)C1 [Example 129, (2,3-dichloro-4-fluorophenyl)(4-(6-fluoropyridin-2-yl)-5,6-dihydropyrido[3,4-d]pyrimidin-7(8H)-yl)methanone]				7.40	2.5%
Cc1ccc(C(=O)N2Cc3nc(C)nc(-c4ccn[nH]4)c3CC2C)c(C)c1 (stereo not drawn) [Example 131, (2,6-dimethyl-4-(1H-pyrazol-5-yl)-5,6-dihydropyrido[3,4-d]pyrimidin-7(8H)-yl)(2,4-dimethylphenyl)methanone]		4.94	< 5.00		7.3%
Cc1nc2c(c(-c3ccn[nH]3)n1)CC(C)N(C(=O)c1cccc(C)c1C)C2 (stereo not drawn) [Example 132, (2,6-dimethyl-4-(1H-pyrazol-5-yl)-5,6-dihydropyrido[3,4-d]pyrimidin-7(8H)-yl)(2,3-dimethylphenyl)methanone]		6.27	5.15		-0.1%
Cc1nc2c(c(-c3ccn[nH]3)n1)CC(C)N(C(=O)c1ccc(F)cc1C)C2 (stereo not drawn) [Example 133, (2,6-dimethyl-4-(1H-pyrazol-5-yl)-5,6-dihydropyrido[3,4-d]pyrimidin-7(8H)-yl)(4-fluoro-2-methylphenyl)methanone]		6.04			0.1%
Cc1nc2c(c(-c3ccn[nH]3)n1)CC(C)N(C(=O)c1cccc(F)c1C)C2 (stereo not drawn) [Example 134, (2,6-dimethyl-4-(1H-pyrazol-5-yl)-5,6-dihydropyrido[3,4-d]pyrimidin-7(8H)-yl)(3-fluoro-2-methylphenyl)methanone]		6.48	5.90		0.4%
Cc1nc2c(c(-c3ccn[nH]3)n1)CC(C)N(C(=O)c1cccc(C)c1F)C2 (stereo not drawn) [Example 135, (2,6-dimethyl-4-(1H-pyrazol-5-yl)-5,6-dihydropyrido[3,4-d]pyrimidin-7(8H)-yl)(2-fluoro-3-methylphenyl)methanone]		6.31	5.73		-1%
